US11066668B2, “Compositions and methods for modulation of IKBKAP splicing” (Ionis Pharmaceuticals, Inc., priority 2012, dated 2021)
Oligonucleotides are written 5' to 3', each unit as a sugar letter and its base; * is a phosphorothioate linkage, no mark a phosphodiester; rarer units and linkages stand in square brackets, end groups in braces. Plain capitals give the bases only. e = 2'-O-(2-methoxyethyl) (MOE); [5mC] = 5-methylcytosine

System: IKBKAP pre-mRNA (mt19-21 minigene)
Assay: Exon 20 inclusion in HEK-293 cells harboring the mt19-21 IKBKAP minigene (RT-PCR)
Assay type: cell-based, human
Settings: HEK-293 with mt19-21 minigene; for % inclusion (exon 20): 0.007 nmol oligonucleotide by electroporation, RT-PCR two days later; for effect on exon 20 inclusion/skipping, in words: 0.007 nmol oligonucleotide
Experimental: Antisense oligonucleotides were designed targeting a human IKBKAP nucleic acid and were tested for their effects on IKBKAP pre-mRNA in vitro. Together, the overlapping antisense oligonucleotides spanned the entire 74-nucleotide region of the IKBKAP exon 20 sequence, as well as the 100-nucleotide intronic regions immediately upstream and downstream of exon 20. The antisense oligonucleotides are presented in Table 1, and were designed as uniform 2′-O-methoxyethyl ribose (MOE) oligonucleotides with phosphate backbones. Each oligonucleotide is 15 nucleosides in length. All cytosine residues throughout the oligonucleotide are 5-methylcytosines. ‘Start Site’ indicates the 5′-most nucleoside to which the oligonucleotide is targeted in the human gene sequence. “Stop site” indicates the 3′-most nucleoside to which the oligonucleotide is targeted in the human gene sequence. Each oligonucleotide listed in Table 1 is targeted to the human IKBKAP genomic sequence (the complement of GENBANK Accession No NT_008470.16 truncated from nucleotides 13290828 to Ser. No. 13/358,424, designated herein as SEQ ID NO: 1). ISIS 414161 has one mismatch with SEQ ID NO: 1.
Cultured HEK-293 cells harboring the mt19-21 minigene vector construct at a density of 7×10^5 cells per well were transfected using electroporation (Gene Pulsar II apparatus, Bio-Rad) with 0.007 nmol antisense oligonucleotide, as previously described (Hua, Y., et al., 2007. PLoS Biol 5:e73). […] These oligonucleotides served as controls for non-specific effects of uniform MOE oligonucleotides with phosphate backbones. Cells harboring the wt19-21 minigene and the mt19-21 minigene alone were also cultured and were used as controls for exon 20 inclusion levels. Two days later, cDNA synthesized from total RNA extracted from HEK-293 cells was amplified using the forward primer pCDNAF and reverse primer sequence IKAP21R4 to assay the splicing pattern of expressed RNAs by RT-PCR. To calculate exon 20 inclusion levels, the PCR amplicons were labeled with α^32P-dCTP. The PCR products were then separated by native PAGE, followed by phosphorimage analysis on a FUJIFILM FLA-5100 instrument (Fuji Medical Systems USA Inc.). The band intensities were quantified using Multi Gauge software Version 2.3 (FUJIFILM), and values were normalized for the G+C content according to the DNA sequence.
Treatment with antisense oligonucleotides targeting the 3′ and 5′ splice sites caused increased skipping of exon 20.
Additional oligonucleotides were designed targeting the first 30-nucleotide stretch of ISS-40. These oligonucleotides were designed by choosing sequences shifted in one nucleotide increments upstream and downstream (i.e., a “microwalk”) of ISS-40, starting from the +6 position in exon 20. The antisense oligonucleotides are presented in Table 2 and FIG. 4D, and were designed as uniform 2′-O-methoxyethyl ribose (MOE) oligonucleotides with phosphate backbones. Each oligonucleotide is 20 nucleosides in length. All cytosine residues throughout the oligonucleotide are 5-methylcytosines. ‘Start Site’ indicates the 5′-most nucleoside to which the oligonucleotide is targeted in the human gene sequence. “Stop site” indicates the 3′-most nucleoside to which the oligonucleotide is targeted in the human gene sequence. Each oligonucleotide listed in Table 2 is targeted to intron 20 of the human IKBKAP genomic sequence (the complement of GENBANK Accession No NT_008470.16 truncated from nucleotides 13290828 to Ser. No. 13/358,424, designated herein as SEQ ID NO: 1). These oligonucleotides were tested in vitro.
Cultured HEK-293 cells harboring the mt19-21 minigene vector construct at a density of 7×10^5 cells per well were transfected using electroporation (Gene Pulsar II apparatus, Bio-Rad) with 0.007 nmol antisense oligonucleotide, as previously described (Hua, Y., et al., 2007. PLoS Biol 5:e73). […]

| Substance | % inclusion (exon 20) (Table 2 (microwalk experiment)) | effect on exon 20 inclusion/skipping, in words | % inclusion (exon 20) (Table 1) |
| --- | --- | --- | --- |
| ISIS 421996: uniform 2′-MOE 20-mer, phosphate backbone; ACTAGTCGCAAACAGTACAA, SEQ ID NO 65, intron 20 (eAe[5mC]eTeAeGeTe[5mC]eGe[5mC]eAeAeAe[5mC]eAeGeTeAe[5mC]eAeA; splice-switching) | 89% |  |  |
| ISIS 414164: uniform 2′-MOE 15-mer, phosphate backbone; AGCTAACTAGTCGCA, SEQ ID NO 43, intron 20 (eAeGe[5mC]eTeAeAe[5mC]eTeAeGeTe[5mC]eGe[5mC]eA; splice-switching) | 74% | markedly increased inclusion of exon 20 | 78% |
| ISIS 414165: uniform 2′-MOE 15-mer, phosphate backbone; TCACAAGCTAACTAG, SEQ ID NO 44, intron 20 (eTe[5mC]eAe[5mC]eAeAeGe[5mC]eTeAeAe[5mC]eTeAeG; splice-switching) | 64% | markedly increased inclusion of exon 20 | 66% |
| ISIS 414135: uniform 2′-MOE 15-mer, phosphate backbone; CAGGATACACCATTT, SEQ ID NO 14, intron 19 (e[5mC]eAeGeGeAeTeAe[5mC]eAe[5mC]e[5mC]eAeTeTeT; splice-switching) |  | positive effect on exon 20 inclusion | 46% |
| ISIS 421997: uniform 2′-MOE 20-mer, phosphate backbone; AACTAGTCGCAAACAGTACA, SEQ ID NO 66, intron 20 (eAeAe[5mC]eTeAeGeTe[5mC]eGe[5mC]eAeAeAe[5mC]eAeGeTeAe[5mC]eA; splice-switching) | 81% |  |  |
| ISIS 414175: uniform 2′-MOE 15-mer, phosphate backbone; TTTTAAGTTCTCGAA, SEQ ID NO 54, intron 20 (eTeTeTeTeAeAeGeTeTe[5mC]eTe[5mC]eGeAeA; splice-switching) |  |  | 27% |
| ISIS 414142: uniform 2′-MOE 15-mer, phosphate backbone; AACATTTTTAATTAA, SEQ ID NO 21, intron 19 (eAeAe[5mC]eAeTeTeTeTeTeAeAeTeTeAeA; splice-switching) |  |  | 23% |
| ISIS 414138: uniform 2′-MOE 15-mer, phosphate backbone; AAACATTTAAATAGC, SEQ ID NO 17, intron 19 (eAeAeAe[5mC]eAeTeTeTeAeAeAeTeAeGe[5mC]; splice-switching) |  |  | 23% |
| ISIS 421999: uniform 2′-MOE 20-mer, phosphate backbone; CTAACTAGTCGCAAACAGTA, SEQ ID NO 68, intron 20 (e[5mC]eTeAeAe[5mC]eTeAeGeTe[5mC]eGe[5mC]eAeAeAe[5mC]eAeGeTeA; splice-switching) | 82% |  |  |
| ISIS 414166: uniform 2′-MOE 15-mer, phosphate backbone; ATAAATCACAAGCTA, SEQ ID NO 45, intron 20 (eAeTeAeAeAeTe[5mC]eAe[5mC]eAeAeGe[5mC]eTeA; splice-switching) | 38% | markedly increased inclusion of exon 20 | 40% |
| ISIS 414167: uniform 2′-MOE 15-mer, phosphate backbone; CACACATAAATCACA, SEQ ID NO 46, intron 20 (e[5mC]eAe[5mC]eAe[5mC]eAeTeAeAeAeTe[5mC]eAe[5mC]eA; splice-switching) |  | significantly decreased the levels of the included RNA isoform | 13% |
| ISIS 414173: uniform 2′-MOE 15-mer, phosphate backbone; TCGAAATTGTAATAA, SEQ ID NO 52, intron 20 (eTe[5mC]eGeAeAeAeTeTeGeTeAeAeTeAeA; splice-switching) |  |  | 31% |
| ISIS 414157: uniform 2′-MOE 15-mer, phosphate backbone; CACTTCCGAATCTGA, SEQ ID NO 36, exon 20 (e[5mC]eAe[5mC]eTeTe[5mC]e[5mC]eGeAeAeTe[5mC]eTeGeA; splice-switching) |  |  | 15% |
| ISIS 414177: uniform 2′-MOE 15-mer, phosphate backbone; CTTTTCATAATTTTA, SEQ ID NO 56, intron 20 (e[5mC]eTeTeTeTe[5mC]eAeTeAeAeTeTeTeTeA; splice-switching) |  |  | 25% |
| ISIS 414156: uniform 2′-MOE 15-mer, phosphate backbone; CCGAATCTGAGCTAA, SEQ ID NO 35, exon 20 (e[5mC]e[5mC]eGeAeAeTe[5mC]eTeGeAeGe[5mC]eTeAeA; splice-switching) |  |  | 5% |
| ISIS 422000: uniform 2′-MOE 20-mer, phosphate backbone; GCTAACTAGTCGCAAACAGT, SEQ ID NO 69, intron 20 (eGe[5mC]eTeAeAe[5mC]eTeAeGeTe[5mC]eGe[5mC]eAeAeAe[5mC]eAeGeT; splice-switching) | 63% |  |  |
| ISIS 414139: uniform 2′-MOE 15-mer, phosphate backbone; GTAGAAAACATTTAA, SEQ ID NO 18, intron 19 (eGeTeAeGeAeAeAeAe[5mC]eAeTeTeTeAeA; splice-switching) |  |  | 20% |
| ISIS 414137: uniform 2′-MOE 15-mer, phosphate backbone; TTTAAATAGCCAGGA, SEQ ID NO 16, intron 19 (eTeTeTeAeAeAeTeAeGe[5mC]e[5mC]eAeGeGeA; splice-switching) |  | positive effect on exon 20 inclusion | 52% |
| ISIS 421991: uniform 2′-MOE 20-mer, phosphate backbone; TCGCAAACAGTACAATGGCG, SEQ ID NO 60, intron 20 (eTe[5mC]eGe[5mC]eAeAeAe[5mC]eAeGeTeAe[5mC]eAeAeTeGeGe[5mC]eG; splice-switching) | 91% |  |  |
| ISIS 414143: uniform 2′-MOE 15-mer, phosphate backbone; GCAGTAACATTTTTA, SEQ ID NO 22, intron 19 (eGe[5mC]eAeGeTeAeAe[5mC]eAeTeTeTeTeTeA; splice-switching) |  |  | 8% |
| ISIS 414147: uniform 2′-MOE 15-mer, phosphate backbone; GTTTCCCCTTGGCAT, SEQ ID NO 26, exon 20 (eGeTeTeTe[5mC]e[5mC]e[5mC]e[5mC]eTeTeGeGe[5mC]eAeT; splice-switching) |  |  | 3% |
| ISIS 414172: uniform 2′-MOE 15-mer, phosphate backbone; ATTGTAATAAAATAC, SEQ ID NO 51, intron 20 (eAeTeTeGeTeAeAeTeAeAeAeAeTeAe[5mC]; splice-switching) |  |  | 31% |
| ISIS 414176: uniform 2′-MOE 15-mer, phosphate backbone; CATAATTTTAAGTTC, SEQ ID NO 55, intron 20 (e[5mC]eAeTeAeAeTeTeTeTeAeAeGeTeTe[5mC]; splice-switching) |  |  | 31% |
